Values joined by “and” are separate entries in the source; they are usually repeats but may differ in a detail not shown here. Equal values may be shown once. Where a name gives a salt, the structure may show the parent alone.

One may read the melting point as the temperature, or range, at which the solid turns liquid. `C=C(C)C(C)C` [2,3-dimethyl-1-butene] returned a melting point of -157 °C.
For `CNC(=O)c1ccc(-c2ccccc2)cc1` [p-phenyl-n-methylbenzamide] the value was 86 °C; for `O=C(C=Cc1ccc([N+](=O)[O-])cc1)c1ccccc1` [2-Propen-1-one, 3- (4-nitrophenyl)-1-phenyl-], 161 °C.
In the case of `Cc1ccc(Cl)c(Cl)c1` [3,4-dichlorotoluene] it was -15 °C; in that of `O=C(O)c1ccccc1` [benzoic acid], 122 °C (5×) and 123 °C (2×); in that of `CCS(=O)(=O)CCO` [2-(ethylsulfonyl)ethanol], 38 °C.
`COc1cc(OC)cc(OC)c1` [1,3,5-trimethoxybenzene] registered a melting point of 53 °C.
Consider `c1ccc2c(c1)Oc1ccccc1S2` [Phenoxathiine], for which the melting point is 59.5 °C.
In the case of `CCCCCCCCCCCCCCCC(=O)O` [Palmitic acid] it was 62.5 °C.
In the case of `COc1ccccc1-c1ccccc1` [2-methoxybiphenyl] [listing 1 of 2 here] it was 30 °C.
For `O=C1OC(=O)c2c(Cl)c(Cl)c(Cl)c(Cl)c21` [tetrachlorophthalic anhydride] the value was 256 °C; for `CC(C)CCCCCCCOC(=O)c1ccccc1C(=O)OCCCCCCCC(C)C` [Bis(8-methylnonyl) phthalate], -50 °C; for `Cc1cccc(O)c1` [m-cresol], 11 °C.
Compound `Oc1ccc(I)cc1` [4-iodophenol] showed a melting point of 93 °C.
Compound `C=CCCC=C` [1,5-hexadiene] had a melting point of -141 °C.
For `NCC[C@H](O)C(=O)N[C@@H]1C[C@H](N)[C@@H](O[C@H]2O[C@H](CN)[C@@H](O)[C@H](O)[C@H]2O)[C@H](O)[C@H]1O[C@H]1O[C@H](CO)[C@@H](O)[C@H](N)[C@H]1O` [Amikacin] the value was 204 °C; for `CCCC=O` [Butyraldehyde], -96 °C.
In the case of `Cc1ccc([N+](=O)[O-])cc1N` [2-methyl-5-nitroaniline] it was 107 °C; in that of `OCCCCCCO` [Hexane-1,6-Diol], 45 °C; in that of `CCCCCCCCCCCCCCC` [N-pentadecane], 10 °C.
In the case of `CCCc1ccc(O)cc1` [4-propylphenol] it was 22 °C; in that of `CCc1ccc(C)cc1` [4-ethyltoluene], -62 °C; in that of `O=[N+]([O-])c1cccc(O)c1` [3-Nitrophenol], 97 °C.
Consider `O=Cc1cccc(C(=O)O)c1` [m-formyl_benzoic_acid], for which the melting point stood at 175 °C.
Regarding `OCCOCCOCCO` [2,2'-[Ethane-1,2-diylbis(oxy)]diethanol], the melting point was -4 °C.
In the case of `CCCCS(=O)CCCC` [di-n-butyl sulfoxide] it was 33 °C; in that of `CCOc1ccccc1OCC` [1,2-diethoxybenzene], 44 °C; in that of `C[C@@H]1C[C@H]2[C@@H]3CCC4=CC(=O)C=C[C@]4(C)[C@@]3(F)[C@@H](O)C[C@]2(C)[C@@]1(O)C(=O)CO` [dexamethasone], 263 °C.
The compound `CC=C(C)C(C)C` [3,4-dimethyl-cis-2-pentene] came in with a melting point of -114 °C.
In the case of `O=C(O[C@@H]1[C@H]3C(=C/[C@H](C)C1)\C=C/[C@@H]([C@@H]3CC[C@H]2OC(=O)C[C@H](O)C2)C)[C@@H](C)CC` [lovastatin] it was 174 °C; in that of `OB(O)c1ccnc(Cl)c1` [2-chloropyridine-4-boronic acid], 162 °C.
In the case of `Cc1cc(C(=O)OCC(=N)O)c(C)n1-c1ccc(F)cc1` [OSM-S-05] it was 178 °C; in that of `CC(=O)Nc1ccccc1` [N-Phenylacetamide], 115 °C.
For `Oc1ncc(F)c(O)n1` [5-Fluorouracil] the value was 283 °C; for `O=[N+]([O-])c1ccccc1O` [2-nitrophenol], 46 °C.
The compound `Nc1nc(=O)c2nc(CNc3ccc(C(=O)N[C@@H](CCC(=O)O)C(=O)O)cc3)cnc2[nH]1` [Folic Acid] had a melting point of 250 °C.
The compound `O=[N+]([O-])/C=C/c1c(Cl)cccc1Cl` [2,6-dichloro-beta-nitrostyrene] returned a melting point of 65 °C.
For `COc1cc(C#N)cc(OC)c1OC` [3,4,5-trimethoxybenzonitrile] the value was 94 °C; for `Cc1ccccc1-c1nnn[nH]1` [5-(2-methylphenyl)-1h-tetrazole], 153 °C; for `CCc1ccccc1N` [2-ethylaniline], -44 °C.
Consider `CC(=O)Oc1c(-c2ccccc2)n(C(C)=O)c2cc([N+](=O)[O-])c(/C(Cl)=C/c3ccccc3)cc12`, for which the melting point worked out at 58 °C.
For `CCC=O` [propanal] the value was -80 °C; for `BrCCCCOc1ccccc1` [(4-bromobutoxy)benzene], 42 °C.
In the case of `COc1cc(Cc2cnc(N)nc2N)cc(OC)c1OC` [5-(3,4,5-Trimethoxybenzyl)pyrimidine-2,4-diamine] it was 201 °C.
For `Oc1ccc(Cl)c(Cl)c1` [3,4-dichlorophenol] the value was 67 °C.
Take `NC1=NCC(c2ccccc2)O1` (centres undefined) [Aminorex]: the melting point was 137 °C.
Compound `c1ccc(N(c2ccccc2)c2ccccc2)cc1` [triphenylamine] returned a melting point of 127 °C.
For `OC(c1ccccc1)c1ccccc1` [benzhydrol] the value was 66 °C; for `CCCN(CCC)CCC` [tri-n-propylamine], -93 °C; for `NC(c1ccccc1)c1ccccc1` [aminodiphenylmethane], 12 °C.
In the case of `Oc1ccc(F)cc1` [4-fluorophenol], the melting point was 46.5 °C.
Compound `CCCC=CB(O)O` [1-pentenylboronic acid] returned a melting point of 80 °C.
On to `CC(=O)CC(=O)Nc1ccccc1` [3-Oxo-N-phenylbutanamide], for which the melting point stood at 86 °C.
In the case of `CCCI` [1-iodopropane] it was -101 °C; in that of `CO[C@@]12[C@H](COC(N)=O)C3=C(C(=O)C(C)=C(N)C3=O)N1C[C@@H]1N[C@@H]12` [mitomycin c], 360 °C.
For `c1cnccn1` [Pyrazine] the value was 55 °C; for `Oc1c(Br)c(Br)c(Br)c(Br)c1Br` [Pentabromophenol], 230 °C.
For `CCOC(=O)C(C#N)=NO` [ethyl isonitrosocyanoacetate] the value was 130 °C; for `NC(N)=S` [thiourea], 177 °C; for `CC(C)CCCC(C)CCCC(C)CCCCC(C)CCCC(C)CCCC(C)C` (centres undefined) [squalane], -38 °C.
`COc1cc2nc(N3CCN(C(=O)c4ccco4)CC3)nc(N)c2cc1OC` [prazosin] showed a melting point of 285 °C.
In the case of `N#CCc1ccc(O)cc1` [4-hydroxyphenylacetonitrile] it was 69 °C; in that of `COc1cccc2c1C(=O)C2` [5-methoxybicyclo[4.2.0]octa-1,3,5-trien-7-one], 35 °C; in that of `CC(C)CCC[C@@H](C)[C@H]1CC[C@H]2[C@@H]3CC[C@H]4C[C@@H](O)CC[C@]4(C)[C@H]3CC[C@]12C` [5alpha-cholestan-3beta-ol], 142 °C.
In the case of `O=C(O)C(Br)(Br)Br` [tribromoacetic acid] it was 132 °C; in that of `CC(N)CCc1ccccc1` (centres undefined) [3-amino-1-phenylbutane], -50 °C.
`Clc1ccc2ncccc2c1` [6-chloroquinoline] came in with a melting point of 35 °C.
In the case of `CCCC=O` [butanal] it was -97 °C.
Regarding `CCSc1ccc(B(O)O)cc1` [4-(ethylthio)benzeneboronic acid], the melting point came to 105 °C.
For `BrCCBr` [1,2-dibromoethane] the value was 10 °C; for `CCn1cc(C(=O)O)c(=O)c2ccc(C)nc21` [Nalidixic Acid], 230 °C.
On to `C1CCCCC1` [cyclohexane], for which the melting point is 7 °C.
In the case of `Nc1ccc(S(=O)(=O)Nc2nccs2)cc1` [sulfathiazole] it was 202 °C.
For `Nc1ccc(Cl)cc1C(=O)c1ccccc1` [2-amino-5-chlorobenzophenone] the value was 98 °C; for `Cc1[nH]c(C)c(C)c1C` [2,3,4,5-tetramethylpyrrole], 105 °C.
In the case of `CCC1(O)CCC(c2ccccc2)c2ccccc21` (centres undefined) [1-ethyl-4-phenyl-1,2,3,4-tetrahydronaphthalen-1-ol] it was 112 °C; in that of `CC(=O)CCC(=O)O` [Laevulinic Acid], 33 °C; in that of `OCCCl` [2-chloroethanol], -63 °C.
`COc1ccc(S(N)(=O)=O)cc1` [4-methoxybenzenesulfonamide] yielded a melting point of 112 °C.
Take `CC(C)c1cccc(B(O)O)c1` [3-isopropylbenzeneboronic acid]: the melting point was 78 °C.
In the case of `CCOC(=O)C(=O)OCC` [diethyl oxalate] it was -40 °C; in that of `O=C(O)/C=C/c1ccccc1` [trans-cinnamic acid], 135 °C.
Regarding `Cc1ccccc1F` [2-fluorotoluene], the melting point was -87 °C.
Consider `Cc1ccc([N+](=O)[O-])cc1` [4-nitrotoluene], for which the melting point amounted to 52 °C.
`Nn1cnnc1` [4-amino-1,2,4-triazole] registered a melting point of 86 °C.
In the case of `N[C@@H](CO)C(=O)O` [L-Serine] it was 222 °C.
In the case of `CC(=O)c1ccccc1-c1ccccc1` [2-acetylbiphenyl], the melting point amounted to 56 °C.
Compound `COc1ccccc1-c1ccccc1` [2-methoxybiphenyl] [listing 2 of 2 here] gave a melting point of 31 °C.
For `CC(=O)Nc1ccccc1` [acetanilide] the value was 115 °C; for `Oc1cccc(O)c1` [resorcinol], 111 °C.
In the case of `Clc1cccc2ccccc12` [1-chloronaphthalene] it was -20 °C; in that of `Cc1ccc([N+](=O)[O-])cc1` [p-nitrotoluene], 54 °C; in that of `N#CCS(=O)(=O)c1ccccc1` [phenylsulfonylacetonitrile], 112 °C.
For `Cc1ccc(B(O)O)cc1[N+](=O)[O-]` [4-methyl-3-nitrobenzeneboronic acid] the value was 250 °C.

The record behind these values is the Bradley open melting point set (2014).
